The values below come from patent publication US5312812A, “Pharmaceutical compositions comprising novel oligopeptides exhibiting selective inhibiting effect upon the proliferation of hemopoietic cells” (Richter Gedeon Vegyeszeti Gyar Rt., priority 1990, dated 1994).

Where two headings read alike, the source gives them in different places. Where a SMILES comes first, the peptide text is derived from it. Where no end group is shown, it is not given here. [ ]: non-standard residue; d: D form. The star is where a group is joined. pGlu = O=C1CC[C@@H](C(=O)O)N1; Acm = CC(=O)NC*

Series [1] relates to human bone marrow cells. The following applies: 10^-15 to 10^-4 mole/l, 7-day in vitro treatment; cited from earlier work.
Series [2] deals with mouse bone marrow cells. The following applies: 10^-15 to 10^-4 mole/l, 7-day in vitro treatment; cited from earlier work.
Series [3] has as its system mouse. The following applies: two mouse species; dose of 9.1 mg/animal or 1 mg/animal; cited from earlier work.
In series [4] the test system is cell proliferation. To be noted: cited from earlier work.
The subject of series [5] is mouse bone marrow cells. It counts as cell-based. The method, then: For the long-term cultivation, cells isolated from mouse bone marrow were used in semi-solid agar culture. 1.5×10^5 femoral medulla cells obtained from 2-3 month old male C57B1 mice were suspended in 1 ml of "McCoy 5A" medium (product of Gibco), then the following were added: 20% by volume of horse blood-serum (product of Gibco), 16% by volume of L-cell CSF (colony stimulating factor prepared from the supernatant of […]; product of the Pharmacological Institute of the Medical University of Debrecen, Hungary) and agar-agar to 0.18% by weight. 100 μl of the semi-solid medium were cultivated in a Micropet capillary for 7 days in the above-described manner, then the colonies were counted under a Zeiss-Cytoplast stereomicroscope of 40-times magnification. The results are given as the percentage reduction of the numbers of colonies compared to the untreated control. The tests were carried out in the presence of 0.25 mmole/l mercapto ethanol (+ME) and without mercapto ethanol (-ME).

Take `NCCCC[C@H](NC(=O)[C@H](CS)NC(=O)[C@H](CC(=O)O)NC(=O)[C@H](CCC(=O)O)NC(=O)[C@@H]1CCC(=O)N1)C(=O)O` [SEQ I.D. No: 5, Xaa Glu Asp Cys Lys] (HELM PEPTIDE1{[Glp].E.D.C.K}$$$$V2.0): the “toxicity to bone marrow cells” value in series [1] and in series [2] was “not toxic” throughout. Also, the toxicity to mice entry in series [3] was “not toxic”.
Turning to “Xaa Glu Asp Cys Lys Xaa Glu Asp Cys Lys ([pGlu]EDCK[pGlu]EDCK; not fully specified; printed as Xaa Glu Asp Cys Lys Xaa Glu Asp Cys Lys; cysteine pairing not given here) [SEQ I.D. No: 3, dimer molecule of the hemoregulating pentapeptide, Xaa is pyroglutamic acid]”, the “effect on cell proliferation” value in series [4] is on record as “cell proliferation stimulating effect”.
As to “Xaa Glu Asp Met Lys ([pGlu]EDMK) [SEQ I.D. No: 4, Met analogue of the pentapeptide, Xaa is pyroglutamic acid]”, in series [4], the “effect on cell proliferation” value is “ineffectiveness”.
Turning to `CC(=O)NCSC[C@H](NC(=O)[C@H](CC(=O)O)NC(=O)[C@@H](N)CCC(=O)O)C(=O)N[C@@H](CCCCN)C(=O)O` [SEQ I.D. No: 2, Glu Asp Cys Lys] (H-EDC(Acm)K-OH), the “percentage reduction of the numbers of colonies compared to the untreated control” value in series [5] was determined as 29%; in series [5] (1e-12 mole/l), 36%; in series [5] (1e-10 mole/l) it was 52%; in series [5] (1e-9 mole/l) it was 26%; in series [5] (1e-8 mole/l), 64%; in series [5] (1e-6 mole/l), 66%.
As for `CC(=O)NCSC[C@H](NC(=O)[C@H](CC(=O)O)NC(=O)[C@H](CCC(=O)O)NC(=O)[C@@H]1CCC(=O)N1)C(=O)N[C@@H](CCCCN)C(=O)O` [SEQ I.D. No: 1, Xaa Glu Asp Cys Lys] ([pGlu]EDC(Acm)K-OH), the “percentage reduction of the numbers of colonies compared to the untreated control” value is 70% in series [5] (1e-12 mole/l), 77% in series [5] (1e-8 mole/l) and 81% in series [5] (1e-4 mole/l).
